Measurements as given in PubChem BioAssay (NCI).
Where “and” joins values, the source holds several entries; their conditions need not be identical. Equal values may be shown once.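 Interpolation was linear, between the two tested concentrations surrounding the appropriate level; five concentrations were tested over 48 hours in 96-well plates. GI50 is the concentration that inhibits growth by half. TGI is the concentration that stops growth completely.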

What was measured:
Experiment in all cases: DTP human tumour cell line panel, 48 h
A549 NSCLC = system: A549 NSCLC
ACHN renal = system: ACHN renal
HL-60(TB) leukemia = system: HL-60(TB) leukemia
KM12 colon = system: KM12 colon
MALME-3M melanoma = system: MALME-3M melanoma
NCI-H522 lung = system: NCI-H522 lung
OVCAR-4 ovarian = system: OVCAR-4 ovarian
SF-539 CNS = system: SF-539 CNS
SK-MEL-5 melanoma = system: SK-MEL-5 melanoma
SK-OV-3 ovarian = system: SK-OV-3 ovarian
SNB-75 CNS = system: SNB-75 CNS
NCI-H23 lung = system: NCI-H23 lung
OVCAR-8 ovarian = system: OVCAR-8 ovarian
BT-549 breast = system: BT-549 breast
MDA-MB-435 = system: MDA-MB-435
MDA-N = system: MDA-N
MCF7 breast = system: MCF7 breast

SMILES	TGI (A549 NSCLC) [µM]	TGI (ACHN renal) [µM]	TGI (HL-60(TB) leukemia) [µM]	TGI (KM12 colon) [µM]	TGI (MALME-3M melanoma) [µM]	TGI (NCI-H522 lung)	TGI (OVCAR-4 ovarian) [µM]	TGI (SF-539 CNS) [µM]	TGI (SK-MEL-5 melanoma) [µM]	TGI (SK-OV-3 ovarian)	TGI (SNB-75 CNS) [µM]	TGI (NCI-H23 lung) [µM]	TGI (OVCAR-8 ovarian) [µM]	TGI (BT-549 breast) [µM]	TGI (MDA-MB-435) [µM]	TGI (MDA-N) [µM]	TGI (MCF7 breast) [µM]	GI50 (ACHN renal)	GI50 (KM12 colon)	GI50 (MALME-3M melanoma)
CC[n+]1c(/C=C/c2cc(C(=O)OC)n3c2sc2ccccc23)sc2ccccc21	38.3	36.2	98.4	29.1	33	30.7 µM	34.2	33.8	28.9	34 µM	32.5	–	–	–	–	–	–	–	–	–
O=C(O)C(Cc1ccc(O)cc1)N=Cc1nc(-c2ccccc2)oc1O (stereo not drawn)	> 100	> 100	> 100	> 100	> 100	> 100 µM	> 100	> 100	> 100	> 100 µM	> 100	> 100	> 100	–	–	–	–	–	–	–
COC(=O)c1ccc(C)cc1C1CN=NC12Cc1c(C)cccc1C2=O (stereo not drawn)	> 100	> 100	71.1	> 84.8	> 90.3	97.4 µM	> 93.9	> 100	> 53.2	> 93.4 µM	> 100	> 100	> 92.4	> 70.1	> 71.2	> 100	–	–	–	–
c1ccc2c(c1)n1c(N3CCCC3)[n+]3ccccc3c1c1c3cccc[n+]3c(N3CCCC3)n21	> 100	> 100	> 100	> 100	> 100	> 100 µM	> 100	> 100	65.8	–	68.5	> 100	93.3	> 100	> 100	–	> 100	–	–	–
CCOC(=O)C1=C(C)N(Cc2ccccc2)C2(O)C=CC(=O)C3C(=O)N(c4ccccc4)C(=O)C132 (stereo not drawn)	10.4	3.25	4.98	4.59	7.68	3.32 µM	6.45	3.45	12.8	19.3 µM	–	5.36	3.32	–	3.86	12.5	12.7	–	–	–
COc1cc2c(c(OC)c1OC)[C@@H]1CCCCC[C@@H]1CCC2=O	> 100	> 100	> 63.4	> 100	> 100	> 100 µM	> 100	> 100	> 100	> 100 µM	> 100	> 100	> 100	–	–	–	–	–	–	–
COc1cc(C(C)c2cc3c(cc2OCCCCCOc2cc4c(cc2C(C)c2cc(OC)c(OC)c(OC)c2)OCO4)OCO3)cc(OC)c1OC (stereo not drawn)	> 100	> 100	> 100	> 100	> 100	> 100 µM	> 100	> 100	> 100	–	> 100	> 100	> 100	–	–	–	–	–	–	–
CCOC(=O)C1Cc2ccc(C)cc2C1=O (stereo not drawn)	> 100	> 100	69.9	> 100	> 100	–	> 100	> 100	> 100	> 100 µM	> 100	> 100	> 100	–	> 100	> 100	> 100	–	–	–
c1ccc(CSCCC(SCc2ccccc2)SCc2ccccc2)cc1	> 10	> 10	> 10	> 10	> 10	> 10 µM	> 10	> 10	> 10	> 10 µM	> 10	> 10	> 10	–	–	> 10	> 10	–	–	–
O=C(O)CNc1ncc2c(n1)-c1ccccc1OC2	> 100	> 100	> 100	> 100	> 100	–	> 100	> 100	> 100	> 100 µM	> 100	> 100	> 100	–	> 100	> 100	> 100	–	–	–
COC(=O)/C=C1\C(=O)Nc2ccc(Br)cc21	12.3	3.36	3.92	4.8	7.75	2.34 µM	5.84	–	3.2	10.1 µM	3.87	3.52	5.78	3.88	4.76	–	3.01	–	–	–
CCOC(=O)c1sc2c(c1OC(=O)c1ccco1)c(=O)n(-c1ccccc1)c(=S)n2-c1ccccc1	> 100	83.8	52.2	> 100	60.6	> 100 µM	> 100	97.9	32.1	> 100 µM	> 100	> 100	70.8	–	93	> 100	> 100	–	–	–
CC(=O)NC1=C(NCCO)C(=O)c2ccccc2C1=O	> 50	> 50	> 50	> 50	46	> 50 µM	> 50	> 50	> 50	> 50 µM	> 50	> 50	> 50	–	–	–	–	–	–	–
COc1cc(CNc2ccc(C)cc2)cc(OC)c1OC	> 100	> 100	–	2.33	> 100	0.435 µM and 0.83 µM	> 100	–	> 100	0.825 µM and 1.3 µM	> 100	3.08	–	–	–	–	–	0.674 µM and 0.216 µM	0.104 µM and 0.341 µM	0.276 µM and 0.658 µM
CC1(C)COC(c2cccc(C(=O)c3ccccc3)c2)=N1	> 100	> 100	58	> 100	> 100	88.1 µM	> 100	–	32.1	> 100 µM	–	> 100	> 100	–	–	> 100	> 100	–	–	–
C#CCNC(CCCN=C(N)N)C(=O)O (stereo not drawn)	> 100	> 100	> 100	> 100	> 100	> 100 µM	> 100	–	> 100	> 100 µM	> 100	> 100	> 100	> 100	> 100	–	–	–	–	–

SMILES	TGI (A549 NSCLC) [µM]	TGI (ACHN renal) [µM]	TGI (HL-60(TB) leukemia) [µM]	TGI (KM12 colon) [µM]	TGI (MALME-3M melanoma) [µM]	TGI (NCI-H522 lung)	TGI (OVCAR-4 ovarian) [µM]	TGI (SF-539 CNS) [µM]	TGI (SK-MEL-5 melanoma) [µM]	TGI (SK-OV-3 ovarian)	TGI (SNB-75 CNS) [µM]	TGI (NCI-H23 lung) [µM]	TGI (OVCAR-8 ovarian) [µM]	TGI (BT-549 breast) [µM]	TGI (MDA-MB-435) [µM]	TGI (MDA-N) [µM]	TGI (MCF7 breast) [µM]	GI50 (ACHN renal)	GI50 (KM12 colon)	GI50 (MALME-3M melanoma)
Cc1nsc2cc(Cl)n(C)c(=O)c12	> 100	> 100	> 100	> 100	> 100	69.3 µM	> 100	> 100	> 100	> 100 µM	> 100	> 100	> 100	–	–	–	–	–	–	–
CCCCCCCCC#CCCCCCCC(F)C(=O)O (stereo not drawn)	> 100	> 100	83.6	> 100	> 100	> 100 µM	> 100	> 100	> 100	> 100 µM	> 100	> 100	> 100	–	> 100	–	–	–	–	–
COc1cccc(C2c3cc4c(cc3OC(N3CCCC3)C2c2ccccc2)OCO4)c1O (stereo not drawn)	61.4	25.8	–	18.7	–	58.4 µM	–	21.7	22.6	–	–	36.2	61.2	–	22.8	24.6	32.6	–	–	–
CCN1C(c2ccccc2)=CC(c2ccccc2)(C(Cl)(Cl)Cl)C=C1c1ccccc1	> 100	> 100	2.73	16.2	24	> 100 µM	> 100	37	4.46	–	> 100	93.4	> 100	–	9.51	> 100	> 100	–	–	–
CCc1n[nH]c(=O)n1N	> 100	> 100	> 100	> 100	> 100	> 100 µM	> 100	> 100	> 100	> 100 µM	> 100	> 100	> 100	> 100	> 100	–	> 100	–	–	–
COc1cnc2oc3ccc(O)cc3c2c1-c1ccccc1	> 100	> 100	> 100	> 100	> 100	> 100 µM	> 100	> 100	> 100	> 100 µM	> 100	> 100	> 100	> 100	> 100	–	> 100	–	–	–
O=C(NC1C(=O)NC(CCc2ccccc2)NC1=O)OCc1ccccc1 (stereo not drawn)	> 100	> 100	> 100	> 100	> 100	> 100 µM	> 100	> 100	> 100	–	> 100	> 100	> 100	–	> 100	–	> 100	–	–	–
CCOC(=O)/C(=C\n1c(=O)sc2ccccc21)C(=O)c1ccccc1	> 100	> 100	> 100	> 100	> 100	> 100 µM	> 100	> 100	> 100	> 100 µM	> 100	> 100	> 100	–	> 100	–	> 100	–	–	–
Cc1cc(O)c(C(O)c2ccccn2)cc1O (stereo not drawn)	> 100	18.4	53	82.3	40.1	14.7 µM	–	> 100	38.4	–	31.9	42.6	40.8	–	35.3	36.2	43.8	–	–	–
COc1ccccc1NC(=S)Nc1ccccn1	> 100	–	> 100	> 100	> 100	> 100 µM	> 100	> 100	> 100	> 100 µM	> 100	–	> 100	> 100	> 100	–	> 100	–	–	–
CC(=O)O[C@H]1[C@@H](N2CCCCC2)C[C@H]2[C@@H]3CC=C4C[C@@H](N5CCCC5)CC[C@]4(C)[C@H]3CC[C@@]21C	> 100	> 100	> 100	> 100	52.4	> 100 µM	> 100	34.5	> 100	> 100 µM	> 100	> 100	> 100	> 100	> 100	–	> 100	–	–	–
COc1cc2c(/C=C3/C(=O)Nc4cc(C)c(O)cc43)c(Cl)[nH]c2cc1C	20.2	17.9	–	10.2	11.6	11.1 µM	24.1	5.93	12.5	8.32 µM	7.6	5.87	15.7	45.3	1.22	–	13.4	–	–	–
Nc1ccc(C(=O)NN2C(=O)C(Cl)C2c2ccc(O)cc2)cc1 (stereo not drawn)	> 100	> 100	33.7	47.2	32.9	24.4 µM	41.4	34.3	31	46.1 µM	70.4	35.2	68.8	–	–	–	–	–	–	–
O=C1NCC2(CCN(CC3COc4ccccc4O3)CC2)N1c1ccccc1 (stereo not drawn)	> 100	> 100	> 100	> 100	> 100	> 100 µM	> 100	> 100	> 100	> 100 µM	> 100	> 100	> 100	–	> 100	–	> 100	–	–	–
CN(C)Cc1cc(C(=O)/C=C/c2ccc(Cl)cc2Cl)cc(CN(C)C)c1O	11.9	10.9	8.67	4.51	23.5	7.29 µM	13.1	17	5.66	–	16.7	22.6	11	–	17.1	5.92	15.3	–	–	–
O=C(CC(=O)n1nc(-c2ccccc2)c(N=Nc2ccc([N+](=O)[O-])cc2)c1-c1ccccc1)Nc1ccc(Cl)cc1	56.3	19.2	70.4	> 100	> 100	> 100 µM	> 100	75.8	22.3	42.3 µM	> 100	> 100	> 100	–	–	–	–	–	–	–
